Patent US20260078130A1, “NAMPT MODULATORS, PREPARATIONS, AND USES THEREOF” (SIRONAX LTD., priority 2022, published 2026)

How the values were obtained:
[1] = biological target: T1, human enzyme NAMPT (full length) (Homo sapiens, UniProt P43490); assay: NMN fluorescence biochemical assay (stimulation of NMN synthesis by NAMPT); conditions: for EC50: NMN fluorescence assay, purified human NAMPT 100 nM, concentration giving half-maximal activation, read-out: Enzymatic EC50; for Enzymatic Emax: fold change of maximal activation compared to DMSO
T1 construct: human enzyme NAMPT (full length)
Method in brief: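 Full-length human NAMPT (100 nM) was preincubated 15 min at 37 °C with compound in 50 mM Tris-HCl pH 7.5, 10 mM MgCl2, 2 mM DTT, then reacted 1 h at 37 °C with 50 μM NAM, 100 μM PRPP, 4 mM ATP (stated solution concentrations). NMN was derivatised with acetophenone/KOH then formic acid and read at Ex/Em 382/445 nm; EC50 and Emax (fold over DMSO) reported.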

[2] = test system: endogenous NAMPT in U2OS cells; assay: Cellular NAD+ modulation assay (NAD/NADH-Glo, U2OS cells); assay type: cell-based; conditions: Homo sapiens, 24 hours incubation, cellular NAD+; for maximal fold induction: read-out: Cellular Emax
Method in brief: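 Endogenous NAMPT stimulation in U2OS cells treated with compound dilution series for 24 h at 37 °C. Cells lysed with DTAB base, acid-treated 15 min at 60 °C, neutralized, NAD+ read by NAD/NADH-Glo luminescence after 40 min at room temperature. EC50 and Emax (fold over DMSO) derived.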

T1 sequence (P43490 whole entry): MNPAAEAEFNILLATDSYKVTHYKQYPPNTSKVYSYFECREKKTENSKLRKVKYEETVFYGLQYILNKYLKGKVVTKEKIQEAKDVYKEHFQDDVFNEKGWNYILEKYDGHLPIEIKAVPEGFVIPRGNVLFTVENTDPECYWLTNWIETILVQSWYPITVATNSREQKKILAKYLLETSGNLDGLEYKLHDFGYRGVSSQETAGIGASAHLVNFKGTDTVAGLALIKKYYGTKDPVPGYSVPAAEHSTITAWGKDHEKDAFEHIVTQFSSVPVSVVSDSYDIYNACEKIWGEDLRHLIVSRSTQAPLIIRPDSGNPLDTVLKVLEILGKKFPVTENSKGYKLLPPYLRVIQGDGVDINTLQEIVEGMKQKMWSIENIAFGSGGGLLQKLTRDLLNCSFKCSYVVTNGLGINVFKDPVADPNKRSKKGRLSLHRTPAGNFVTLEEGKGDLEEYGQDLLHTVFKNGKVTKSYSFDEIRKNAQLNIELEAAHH

| Compound | EC50 [1] [µM] | Enzymatic Emax [1] | EC50 [2] [µM] | maximal fold induction [2] |
| --- | --- | --- | --- | --- |
| Cn1ncc(Cl)c1CC1c2ccccc2C(=O)N1Cc1n[nH]c(=O)o1 (centres unmarked) [Compound 632, 5-((1-((4-chloro-1-methyl-1H-pyrazol-5-yl)methyl)-3-oxoisoindolin-2-yl)methyl)-1,3,4-oxadiazol-2(3H)-one] | ≥ 5 | B (3≥B>2) | 0.5 to 5 | > 1.5 |
| Cn1ncc(Cl)c1CC1c2ccccc2C(=O)N1Cc1c[nH]nn1 (centres unmarked) [Compound 637, 2-((1H-1,2,3-triazol-4-yl)methyl)-3-((4-chloro-1-methyl-1H-pyrazol-5-yl)methyl)isoindolin-1-one] | ≥ 5 | B (3≥B>2) | < 0.5 | 1.2 to 1.5 |
| COc1ccc(CN2C(=O)c3ccc(Cl)cc3C2Cc2c(C)ncnc2C#N)cn1 (centres unmarked) [Compound 639, 5-((6-chloro-2-((6-methoxypyridin-3-yl)methyl)-3-oxoisoindolin-1-yl)methyl)-6-methylpyrimidine-4-carbonitrile] | ≥ 5 | B (3≥B>2) | 0.5 to 5 | 1.2 to 1.5 |
| COc1ccc(CN2C(=O)c3ccc(C4CC4)cc3C2Cc2c(C)ncnc2C#N)cn1 (centres unmarked) [Compound 640, 5-((6-cyclopropyl-2-((6-methoxypyridin-3-yl)methyl)-3-oxoisoindolin-1-yl)methyl)-6-methylpyrimidine-4-carbonitrile] | ≥ 5 | A (A>3) | 0.5 to 5 | 1.2 to 1.5 |
| COc1ccc(CN2C(Cc3c(Cl)cnn3C)c3ccccc3S2(=O)=O)cc1 (centres unmarked) [Compound 641, 3-((4-chloro-1-methyl-1H-pyrazol-5-yl)methyl)-2-(4-methoxybenzyl)-2,3-dihydrobenzo[d]isothiazole 1,1-dioxide] | ≥ 5 | A (A>3) | < 0.5 | 1.2 to 1.5 |

Continued, in another order:

| EC50 [1] [µM] | Enzymatic Emax [1] | EC50 [2] [µM] | Compound | maximal fold induction [2] |
| --- | --- | --- | --- | --- |
| ≥ 5 | B (3≥B>2) | 0.5 to 5 | Cc1nnn2cc(CN3C(=O)c4ccccc4C3Cc3c(Cl)cnn3C)ccc12 (centres unmarked) [Compound 627, 3-((4-chloro-1-methyl-1H-pyrazol-5-yl)methyl)-2-((3-methyl-[1,2,3]triazolo[1,5-a]pyridin-6-yl)methyl)isoindolin-1-one] | 1.2 to 1.5 |
| ≥ 5 | B (3≥B>2) | < 0.5 | Cn1ncc(Cl)c1CC1c2ccccc2C(=O)N1Cc1cnc(N)s1 (centres unmarked) [Compound 628, 2-((2-aminothiazol-5-yl)methyl)-3-((4-chloro-1-methyl-1H-pyrazol-5-yl)methyl)isoindolin-1-one] | 1.2 to 1.5 |
| < 0.5 | B (3≥B>2) | < 0.5 | Cn1ncc(Cl)c1CC1c2ccccc2C(=O)N1Cc1cn[nH]c1 (centres unmarked) [Compound 629, 2-((1H-pyrazol-4-yl)methyl)-3-((4-chloro-1-methyl-1H-pyrazol-5-yl)methyl)isoindolin-1-one] | 1.2 to 1.5 |
| ≥ 5 | A (A>3) | 0.5 to 5 | Cn1ncc(Cl)c1CC1c2ccccc2C(=O)N1Cc1c[nH]c(=S)s1 (centres unmarked) [Compound 631, 3-((4-chloro-1-methyl-1H-pyrazol-5-yl)methyl)-2-((2-thioxo-2,3-dihydrothiazol-5-yl)methyl)isoindolin-1-one] | > 1.5 |
| 0.5 to 5 | B (3≥B>2) | 0.5 to 5 | Cc1nc(O)sc1CN1C(=O)c2ccccc2C1Cc1c(Cl)cnn1C (centres unmarked) [Compound 635, 3-((4-chloro-1-methyl-1H-pyrazol-5-yl)methyl)-2-((2-hydroxy-4-methylthiazol-5-yl)methyl)isoindolin-1-one] | > 1.5 |
| 0.5 to 5 | A (A>3) | < 0.5 | COc1ccc(CN2C(=O)c3ccc(C4CC4)cc3C2Cc2c(C)ncnc2C#N)cc1 (centres unmarked) [Compound 638, 5-((6-cyclopropyl-2-(4-methoxybenzyl)-3-oxoisoindolin-1-yl)methyl)-6-methylpyrimidine-4-carbonitrile] | 1.2 to 1.5 |
